Data published in patent US9790158B2, “Substituted tropolone derivatives and methods of use” (University of Connecticut, priority 2012, dated 2017).

Assays:
HuT-78 cells = assay: cell-based cytotoxicity assay (Cell Titer 96 Aqueous One), HuT-78; settings: 72-h exposure, absorbance at 490 nm
Method: (§1) All cell lines were purchased from ATCC (Manassas, Va.). Jurkat cells were cultured in RPMI 1640 (ATCC) supplemented with 10% fetal bovine serum (FBS; Atlanta Biologicals, Lawrenceville, Ga.). HuT-78 cells were cultured in IMDM (ATCC) supplemented with 20% FBS (Atlanta Biologicals). HT-29 and HCT116 were cultured in McCoy's media (Life Technologies, Carlsbad Calif.) supplemented with 10% FBS (Atlanta Biologicals), 1% non-essential amino acids (Mediatech Inc., Manassas, Va.) and 1% penicillin/streptomycin (Mediatech Inc).
(§2) Confluent Jurkat and HuT-78 cells were seeded in triplicate at a density of 5×10^4 cells/well whereas HT-29 and HCT116 cells were seeded in triplicate at a density of 5×10^3 cells/well in 96-well plates. Cells were treated at varying concentrations (1 μM-100 μM) of either a tropolone analog or SAHA. DMSO served as a vehicle control. After a 72-h exposure, cytotoxicity was evaluated using the Cell Titer 96 Aqueous One kit (Promega, Madison, Wis.) according to the instructions of the manufacturer. Formazan content was determined by measuring the absorbance at 490 nm on an Infinite M200 microplate reader (Tecan Group Ltd., Switzerland) and analyzed via non-linear regression analysis (GraphPad Software, Inc.).

human recombinant HDAC8 = human recombinant HDAC8 (Homo sapiens (Human), UniProt Q9BY41); assay: fluorogenic HDAC inhibition assay, HDAC8; format: biochemical; settings: IC50 converted to Ki with KM (Cheng and Prusoff); read-out: Ki HDAC-8
Method: Key enzyme kinetic parameters for one class I HDAC (HDAC8) and one class Ha HDAC (HDAC4) were determined using commercially available human recombinant HDAC enzymes (BPS Bioscience, San Diego, Calif.) and fluorogenic HDAC assay kits (BPS Bioscience). Kinetic parameters were determined by performing HDAC activity assays at varied concentrations of the HDAC substrate according to the manufacturer's protocol. Assay data were analyzed via non-linear regression (GraphPad Software, Inc., CA). Inhibition assays were used to determine the half maximal inhibitory concentration, IC50, for tropolone analogs in HDAC8 and […]. The potent hydroxamic acid HDAC inhibitor, Trichostatin A (TSA), provided in the assay kit, served as a control for the assays. IC50 values for the tropolone analogs were converted to inhibition constants, Ki, for each of the inhibitors using the KM value in accordance with the techniques previously described by Cheng and Prusoff.

human recombinant HDAC4 = human recombinant HDAC4 (Homo sapiens, UniProt P56524); assay: fluorogenic HDAC inhibition assay, HDAC4; format: biochemical; settings: IC50 converted to Ki with KM (Cheng and Prusoff); read-out: Ki HDAC-4
Jurkat cells = assay: cell-based cytotoxicity assay (Cell Titer 96 Aqueous One), Jurkat; settings: 72-h exposure, absorbance at 490 nm
Method: as §1, §2

Chain of human recombinant HDAC8 (Q9BY41 whole entry): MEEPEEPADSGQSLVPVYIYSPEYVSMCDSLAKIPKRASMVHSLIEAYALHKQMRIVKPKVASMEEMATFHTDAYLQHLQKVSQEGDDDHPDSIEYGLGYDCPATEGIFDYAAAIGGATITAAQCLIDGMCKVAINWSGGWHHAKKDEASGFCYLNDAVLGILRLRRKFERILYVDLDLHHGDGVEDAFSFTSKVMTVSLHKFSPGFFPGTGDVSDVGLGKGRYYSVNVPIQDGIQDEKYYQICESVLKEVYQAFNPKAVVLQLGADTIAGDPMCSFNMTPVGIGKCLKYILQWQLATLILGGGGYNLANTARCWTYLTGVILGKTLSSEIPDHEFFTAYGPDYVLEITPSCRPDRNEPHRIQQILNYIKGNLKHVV
Chain of human recombinant HDAC4 (P56524 whole entry, looked up): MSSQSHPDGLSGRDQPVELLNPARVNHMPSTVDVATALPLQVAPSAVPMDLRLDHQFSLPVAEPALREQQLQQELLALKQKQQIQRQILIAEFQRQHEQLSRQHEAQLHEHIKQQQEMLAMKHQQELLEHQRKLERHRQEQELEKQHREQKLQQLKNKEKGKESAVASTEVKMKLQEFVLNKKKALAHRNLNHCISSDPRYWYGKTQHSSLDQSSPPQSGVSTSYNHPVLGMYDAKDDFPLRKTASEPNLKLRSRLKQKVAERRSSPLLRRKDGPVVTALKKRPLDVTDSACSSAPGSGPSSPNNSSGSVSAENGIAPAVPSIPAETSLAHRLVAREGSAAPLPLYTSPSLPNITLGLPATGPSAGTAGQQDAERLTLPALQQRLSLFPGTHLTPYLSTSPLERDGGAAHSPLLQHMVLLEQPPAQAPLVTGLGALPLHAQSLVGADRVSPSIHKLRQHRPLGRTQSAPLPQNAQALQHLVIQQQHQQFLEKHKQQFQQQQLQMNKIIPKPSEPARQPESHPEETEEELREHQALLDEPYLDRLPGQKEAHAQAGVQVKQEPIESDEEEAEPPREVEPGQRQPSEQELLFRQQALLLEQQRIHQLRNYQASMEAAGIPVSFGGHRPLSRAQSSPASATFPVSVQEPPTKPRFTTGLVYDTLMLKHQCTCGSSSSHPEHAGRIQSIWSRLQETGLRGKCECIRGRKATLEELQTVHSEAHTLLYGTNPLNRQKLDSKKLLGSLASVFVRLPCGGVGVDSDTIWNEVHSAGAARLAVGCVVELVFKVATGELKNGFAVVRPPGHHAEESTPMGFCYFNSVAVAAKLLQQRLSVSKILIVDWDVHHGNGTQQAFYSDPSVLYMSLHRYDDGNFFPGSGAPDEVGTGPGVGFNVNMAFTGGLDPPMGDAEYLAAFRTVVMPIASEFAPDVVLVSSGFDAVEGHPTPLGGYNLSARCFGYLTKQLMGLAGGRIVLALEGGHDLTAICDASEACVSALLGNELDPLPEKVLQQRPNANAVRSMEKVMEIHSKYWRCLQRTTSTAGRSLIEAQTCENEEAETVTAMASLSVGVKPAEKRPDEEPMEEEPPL

Structure (SMILES) | IC50 (HuT-78 cells) | Ki (human recombinant HDAC8) | Ki (human recombinant HDAC4) | IC50 (Jurkat cells) | IC50 (HuT-78 cells; Homo sapiens, HuT78) | IC50 (Jurkat cells; Homo sapiens, Jurkat)
O=c1cccc(-c2ccccc2)cc1O [Example 6] | 4140 nM | 19.4 nM | 72.8 nM | 670 nM | – | –
CCC(C)c1cccc(O)c(=O)c1 (stereo not shown) [Example 11] | 3250 nM | 10.1 nM | 94.5 nM | 590 nM | – | –
COc1ccc(-c2ccccc(O)c2=O)cc1 [Example 3] | – | 0.14 nM | 2.74 nM | – | 2870 nM | 620 nM
O=c1cc(C2CCCC2)cccc1O [Example 12] | 11400 nM | 23.3 nM | 6.64 nM | 6300 nM | – | –
COc1ccc(OC)c(-c2cccc(O)c(=O)c2)c1 [Example 8] | 17100 nM | 1.42 nM | 541 nM | 5880 nM | – | –
CC(C)c1cccc(O)c(=O)c1 [Example 9] | 4990 nM | 105 nM | 3.32 nM | 1100 nM | – | –
COc1ccc(-c2ccccc(O)c2=O)c(OC)c1OC [Example 5] | – | 0.04 nM | 59 nM | – | 4740 nM | 1860 nM
COc1ccc(OC)c(-c2ccccc(O)c2=O)c1 [Example 4] | – | 0.44 nM | 184 nM | – | 3050 nM | 750 nM
O=c1c(O)ccccc1-c1ccc2ccccc2c1 [Example 2] | – | 7.63 nM | 0.54 nM | – | – | –
O=c1c(O)ccccc1-c1ccccc1 [Example 1] | – | 0.17 nM | 0.08 nM | – | 7830 nM | 3330 nM
COc1cccc(-c2cccc(O)c(=O)c2)c1 [Example 7] | 8950 nM | 1.36 nM | 1.7 nM | 4620 nM | – | –
CC(C)(C)c1cccc(O)c(=O)c1 [Example 10] | 13100 nM | 2.69 nM | 489 nM | 4450 nM | – | –
